Assay [1] deals with T1, NADPH oxidase (NOX2) (Homo sapiens, UniProt P14598).
T1 construct: HL-60 cells expressed the components of NOX2, including gp91, p22^phox, p47^phox, and p67^phox; endogenous in cells; whole cells in A1, membrane preparations in A3 and A4
T1 sequence (P14598 1-390): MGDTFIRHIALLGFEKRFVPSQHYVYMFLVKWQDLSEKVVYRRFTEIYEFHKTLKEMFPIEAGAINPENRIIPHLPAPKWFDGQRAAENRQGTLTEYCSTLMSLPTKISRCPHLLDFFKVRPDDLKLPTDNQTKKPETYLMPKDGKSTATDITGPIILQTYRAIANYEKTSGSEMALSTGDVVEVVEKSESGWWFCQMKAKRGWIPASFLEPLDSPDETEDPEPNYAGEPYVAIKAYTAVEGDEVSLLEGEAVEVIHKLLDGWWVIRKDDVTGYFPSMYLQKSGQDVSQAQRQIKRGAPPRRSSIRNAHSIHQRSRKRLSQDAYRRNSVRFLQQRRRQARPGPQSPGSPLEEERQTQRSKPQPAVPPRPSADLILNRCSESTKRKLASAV
The experiment in a line: NADPH oxidase activity by lucigenin chemiluminescence in HL-60 membrane preparations. It counts as biochemical. As to conditions: PMA 0.8 µM, compound 50 µM, vs control. The procedure:
Neutrophil-differentiated HL-60 cells (2 × 10^6 cells/mL) were incubated at 37 °C in a humid atmosphere with 5% CO2 and 50 μM of the different acrylonitrile compounds, then PMA 0.8 μM was added and incubated for 1 h to induce the activation of the enzyme NADPH oxidase. As a positive inhibition control, VAS2870 (20 μM) was used. Another two controls were performed: one with cells activated by PMA in the presence of DMSO, and the other (NA, non-activated) with cells in the absence of PMA and the acrylonitrile compounds. In 15 mL conical tubes, 5 mL of cell suspension from each treatment and control condition was transferred at 2 × 10^6 cells/mL and centrifuged at 1000 rpm at 4 °C for 10 min. The supernatant was then discarded, and each pellet was re-suspended in 2 mL of a 4% PBS solution with 2 mM EGTA and 0.25 mM PMSF frozen at −80 °C for 10 min. Then each pellet was thawed on ice. […]
The chemiluminescence analysis of lucigenin derivatives was used to determine the activity of NADPH oxidase in a suspension of membrane preparations of HL-60 cells. […] Chemiluminescence was measured for 1 h at 2 min intervals with a Synnergy H1 hybrid luminometer multi-mode microplate reader and GEN5 program (Biotek Instruments, Inc., Winooski, VT, USA). […] The activity was expressed as relative units of luminescence per second, relative to the control.

Assay [2] deals with T2, NOX2 (Homo sapiens, UniProt P14598).
T2 construct: HL-60 cells expressed the components of NOX2, including gp91, p22^phox, p47^phox, and p67^phox; endogenous in cells; whole cells in A1, membrane preparations in A3 and A4
T2 sequence (P14598 1-390): T1 sequence (P14598 1-390)
In words: NADPH oxidase (NOX2) inhibition, DCF fluorescence in PMA-activated neutrophil-differentiated HL-60 cells. It counts as cell-based. To be noted: for inhibition of NOX2-derived ROS production (in words): PMA-activated HL-60 cells, 0.05 µM to 50 µM; for IC50: neutrophil-differentiated HL-60 cells, PMA 0.8 µM, DCF fluorescence, 0.05 to 50 µM. The procedure:
The differentiation of HL-60 cells to neutrophils was performed after reaching a concentration of between 2 × 10^6 and 5 × 10^6 cells/mL in the differentiation medium: RPMI 1640 medium; 10% FBS; 100 IU/mL of penicillin/streptomycin; and 1.3% DMSO for 7 days, replenishing the differentiation medium every 2 days.
The 2′,7′-dichlorofluorescein (DCF) fluorescence analysis was used to determine NADPH oxidase activity in neutrophil-differentiated HL-60 cells. The method, based on a fluorimetric assay, was adapted from Boly et al.. Briefly, 1 × 10^6 neutrophil-differentiated HL-60 cells/mL were incubated for 45 min. at 37 °C in darkness with DCF-DA (1 mg/mL). The cell suspension was then transferred to a 15 mL conical tube and centrifuged at 330× g × 10 min at 37 °C. After the supernatant was removed, the cells were re-suspended in Hanks balanced saline buffer (HBSS, Sigma-Aldrich, St. Louis, MO, USA) and transferred to dark 96-well plates with a flat glass bottom (Thermo Scientific Nunc 96 microwell® black, Optical Botton # 1.5 Cover Glass Base, Thermo Fisher Scientific). Then, 200 μL of cell suspension per well were incubated at 37 °C for 30 min with the indole heteroaryl-acrylonitriles at increasing concentrations (0.05 to 50 μM). […] Finally, PMA (0.8 μM) was added to each well for 10 min. to generate the activation of NOX2. The generation of the DCF fluorescence product was monitored in an automatic microplate reader (FLx800, BioTek Instruments, Winooski, VT, USA) at 1-min intervals at 37 °C for 1 h, using an excitation wavelength of 485 nm and an emission wavelength of 555 nm. The ability to inhibit ROS production by activated neutrophil-differentiated HL-60 cells was compared against the different controls. A control was performed with cells activated by PMA in the presence of DMSO and established as having 100% of the ROS-induced fluorescence. Inhibition control was performed in the presence of VAS2870 (20 µM) and activated by PMA. Another control (NA, not activated) was done with cells in the absence of PMA and the indole heteroaryl-acrylonitriles.
All the experiments were performed in triplicate, using three different cell preparations, and the data were reported as mean ± s.e.m. For the determination of the IC50 of the indole heteroaryl-acrylonitriles, concentration-response curves (0.05 to 50 μM) were constructed. IC50 values were given as the mean ± standard deviation for at least three independent assays. The data were analyzed using one- and two-way ANOVA. A value of p < 0.05 was considered statistically significant. Statistical analyses were performed using the program GraphPad Prism® version 6.00, San Diego, CA, USA.

Broadly, the IC50 is the point on the concentration scale where inhibition reaches its midpoint. The low end stands for higher potency, the high end for lower potency.

Consider `N#C/C(=C\c1ccncc1)C(=O)c1c[nH]c2ccccc12` [Compound C14], for which the “ROS production, lucigenin chemiluminescence (in words)” value in assay [1] is recorded as “significantly reduce ROS production”. Besides, in assay [2], the “inhibition of NOX2-derived ROS production (in words)” value was “exhibited concentration-dependent inhibition of NOX2” and the IC50 is 3.6 ± 0.2 µM.
In the same order, the values of `N#C/C(=C\c1cc(-c2ccccc2)on1)C(=O)c1c[nH]c2ccccc12` [Compound C6] are “significantly reduce ROS production”, “exhibited concentration-dependent inhibition of NOX2” and 1.1 ± 0.2 µM.
